Series [1] is described as follows: Hygroscopicity study by dynamic vapor sorption (DVS). It is filed as physicochemical. The note with it: 25° C. and 80% RH. How it is done: Dynamic Vapor Sorption (DVS) Method in the Present Disclosure
Instrument model: SMS DVS Advantage dynamic vapor sorption instrument
Test conditions: samples (10 mg to 15 mg) were placed in a DVS sample tray for testing.
Detailed DVS parameters are as follows:
Balance: dm/dt=0.01%/min (shortest: 10 min, longest: 180 min)
Drying: 120 min under 0% RH
RH (%) test step range: 0% to 90% to 0%
The evaluation classification of hygroscopicity was as follows:
10 to 15 mg of the crystal form C of the compound of formula (II) was placed in the DVS sample tray for testing.
10 to 15 mg of the crystal form E of the compound of formula (II) was placed in the DVS sample tray for testing.

Series [2] can be described thus: Pharmacokinetic evaluation in mice, single intragastric administration. The series is classed as in vivo, CD-1 mice (male). How it is done: Experimental Purposes: To Test the Pharmacokinetics of the Compound in Mice
CD-1 mice (male), vehicle (0.5% (w/v) methylcellulose 0.5% (v/v) Tween 80 aqueous solution), trifluoroacetate salt of compound 0027.
The vehicle was 0.5% (w/v) methylcellulose and 0.5% (v/v) Tween 80 aqueous solution, and the formulation was prepared according to the following procedure: […]
Preparation of formulation for intragastric administration: […]
Animals in groups 1 and 2 were given 5 mg/mL and 30 mg/mL compound by single intragastric administration, respectively, with a dose volume of 10 mL/kg.
The animals were weighed before administration, and the administration volume was calculated according to the body weight.
Whole blood samples (30 μL) were collected at specified times (0.25, 0.5, 1, 2, 4, 6, 8, 24 hours) by saphenous vein collection and the actual time of collection was recorded in the test record. The acceptable error for the collection time points was ±1 minute for time points within 1 hour of administration and ±5% of the theoretical time for other time points.
All blood samples were immediately transferred to labeled commercial centrifuge tubes containing K2-EDTA. […] And the pharmacokinetic parameters were calculated, experimental result: See Table 5.

For the compound `COc1cc(OC)c(Cl)c(-c2nc(-c3nc(-c4cn(C)nc4C)cnc3N)cn(C)c2=O)c1` [crystal form E of the compound of formula (II)], in series [1], the Classification of hygroscopicity entry is reported as “slightly hygroscopic” and the “ΔW, hygroscopic weight gain” value is given as 0.5%.

For the compound `COc1cc(OC)c(Cl)c(-c2nc(-c3nc(-c4cn(C)nc4C)cnc3N)cn(C)c2=O)c1` [crystal form C of the compound of formula (II)], in series [1], the Classification of hygroscopicity result is “slightly hygroscopic” and the “ΔW, hygroscopic weight gain” value was determined as 1.1%.

In the case of `COc1cc(OC)c(Cl)c(-c2nc(-c3nc(-c4cn(C)nc4C)cnc3N)cn(C)c2=O)c1`, the Tlast in series [2] (CD-1 mice, intragastric, 300 mpk, plasma) is 24.0 h. Also, the “pharmacokinetic index in mice” value in series [2] (conclusion in words) was “good”.

(Values after patent US11680061B2, “Crystal forms C and E of pyrazin-2(1H)-one compound and preparation method therefor” (ZHANGZHOU PIEN TZE HUANG PHARMACEUTICAL CO., LTD., priority 2019, dated 2023).)
